{"source": "paper PMC10458118", "about": "“Bitter Almond Albumin ACE-Inhibitory Peptides: Purification, Screening, and Characterization In Silico, Action Mechanisms, Antihypertensive Effect In Vivo, and Stability” (Molecules, 2023)", "key": {"[1]": {"tested_on": "ACE", "details": "cited from earlier work; for ACE-inhibitory activity in words: 30 (ADMIET, QTPHQ, ELHPQ), ref 27 (RTVFDGEL, RADVFNPR); for IC50: read-out: Inhibitory capacity on ACE (IC50)", "text": "The results of ultra-high-performance liquid chromatography and quantum-ultra mass spectrometric determination of BAAH-4-C are shown in Table 1 and Figure 4. Five oligopeptides, […]([…]), Lys-Thr-Glu-Thr-Gln-Pro (KTETQP), […]([…]), […]([…]), and Thr-Cys-Gly-Ala-Ser (TCGAS) were obtained. However, only […] offered potential antihypertension based on the vector machine software score (1.35) calculated by the database AHTpin [28]. […] As shown in the Lineweaver–Burk diagram of ACE, the Km increased with the increasing […] dose, but the maximum velocity (Vmax) decreased when the […] dose increased, which was the typical effect of noncompetitive inhibitors. Peptides such as […] an ... || To the best of our knowledge, this is the first study to simultaneously investigate the capacities of bitter almond albumin peptides to inhibit ACE and bind with zinc ions. Previous studies evidenced that thermolysin could quickly cleave the amide bonds linked with hydrophobic amino acid residues, with the released hydrophobic amino acid residues playing an important role in ACE inhibition; whereas papain cleaves multiple sites of polypeptide chains, especially peptide bonds linking with acidic amino acid residues (Glu and Asp), Arg, and aromatic amino acids which was helpful for the release o ... || (+ 2 further places)"}, "[2]": {"tested_on": "SHR", "details": "cited from earlier work", "text": "Zinc chelation may change the coordination of peptides toward ACE, resulting in lower ACE-inhibitory activity and antihypertension."}, "[3]": {"experiment": "Chelating ability toward zinc ions, 4-(β-Pyridinazo)-resorcinol method", "type": "physicochemical", "details": "0.75 mmol·L^−1 ZnSO4 in HEPES-KOH buffer, peptide solution 0.8 mg·mL^−1, 15 min, 25 °C; repeated three or more times", "experimental": "(§1) In short, 0.75 mmol·L^−1 of ZnSO4 (dissolved in 0.2 mmol·L^−1 of HEPES-KOH buffer) and 10 mmol·L^−1 of 1,4-Dithiothreitol were added into a glass tube. The tube was incubated in the THZ-82AB thermostatic oscillator (195 r·min^−1 and 25 °C). Five minutes later, the zinc concentration in the glass tube was measured and read as C0. Next, the BAAH peptides aqueous solution (0.8 mg·mL^−1) was added and the mixture was continuously shaken for another 15 min. Then, the zinc concentration in the glass tube was measured and read as Ct. The chelating ability of BAAH peptides toward zinc ions was calculated as follows, and ethylenediamine tetraacetic acid (EDTA) was used as the positive control. (1) Chelating ability towards zinc ions (mg·g^−1) = (C0−Ct) × V/m where V and m represent the volume of the reaction solution (mL) and the mass weight of BAAH peptides (g), respectively."}, "[4]": {"target": "T1, ACE (Oryctolagus cuniculus, UniProt P12822)", "T1 construct": "purchased Sigma (St. Louis, MO, USA)", "T1 sequence (P12822 34-1310)": "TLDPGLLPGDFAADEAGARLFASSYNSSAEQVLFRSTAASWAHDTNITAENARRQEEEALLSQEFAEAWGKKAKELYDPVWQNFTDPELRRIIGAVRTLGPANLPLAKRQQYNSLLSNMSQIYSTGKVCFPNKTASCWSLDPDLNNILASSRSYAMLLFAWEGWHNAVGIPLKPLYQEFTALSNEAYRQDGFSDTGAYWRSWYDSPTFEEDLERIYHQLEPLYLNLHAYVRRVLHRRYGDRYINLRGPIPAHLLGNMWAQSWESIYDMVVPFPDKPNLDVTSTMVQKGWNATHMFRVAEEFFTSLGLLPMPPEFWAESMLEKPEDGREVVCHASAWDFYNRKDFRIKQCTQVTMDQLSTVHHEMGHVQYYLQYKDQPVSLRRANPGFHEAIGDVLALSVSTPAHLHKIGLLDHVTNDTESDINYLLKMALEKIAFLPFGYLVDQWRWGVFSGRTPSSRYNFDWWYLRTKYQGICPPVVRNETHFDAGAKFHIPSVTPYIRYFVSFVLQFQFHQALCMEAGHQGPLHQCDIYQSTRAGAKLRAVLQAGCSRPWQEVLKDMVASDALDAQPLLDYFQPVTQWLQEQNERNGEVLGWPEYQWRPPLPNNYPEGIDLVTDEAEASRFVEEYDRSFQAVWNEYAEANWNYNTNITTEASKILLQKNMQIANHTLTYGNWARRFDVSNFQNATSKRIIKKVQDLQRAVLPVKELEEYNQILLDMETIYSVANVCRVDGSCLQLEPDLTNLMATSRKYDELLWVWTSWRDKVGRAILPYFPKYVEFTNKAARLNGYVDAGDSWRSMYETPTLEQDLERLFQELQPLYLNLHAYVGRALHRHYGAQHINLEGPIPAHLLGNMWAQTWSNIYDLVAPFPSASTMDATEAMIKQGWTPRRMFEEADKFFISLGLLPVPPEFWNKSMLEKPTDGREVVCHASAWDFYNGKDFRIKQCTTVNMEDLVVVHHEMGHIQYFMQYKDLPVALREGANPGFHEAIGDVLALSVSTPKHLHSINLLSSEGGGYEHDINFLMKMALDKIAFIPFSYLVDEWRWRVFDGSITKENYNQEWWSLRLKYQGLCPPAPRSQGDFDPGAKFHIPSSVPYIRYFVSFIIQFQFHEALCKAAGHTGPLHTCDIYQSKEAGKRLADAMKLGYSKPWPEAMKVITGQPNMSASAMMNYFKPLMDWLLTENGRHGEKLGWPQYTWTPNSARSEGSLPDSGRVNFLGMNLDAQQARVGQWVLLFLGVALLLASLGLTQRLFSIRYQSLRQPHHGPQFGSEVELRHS", "experiment": "ACE inhibition, N-hippuryl-L-histidyl-L-leucine method", "type": "biochemical", "details": "synthesized peptide; HHL 5 mmol·L^−1, boric acid buffer pH 8.3, 37 °C, 10 min pre-incubation, 1 h reaction, absorbance at 228 nm; read-out: Inhibitory effect against ACE (IC50)", "quoted_text": "The N-hippuryl-L-histidyl-L-leucine method was utilized for the determination of the inhibiting capacity of BAAH peptides toward ACE [30]. In a glass test tube, 0.2 mL of ACE solution (dissolved in boric acid buffer, pH 8.3) and 0.2 mL of BAAH peptide aqueous solution (1 mg·mL^−1) were added. The mixture in the glass tube was shaken in a water bath at 143 r·min^−1 and 37 °C. Ten minutes later, 0.65 mL of N-hippuryl-L-histidyl-L-leucine (5 mmol·L^−1, dissolved in boric acid buffer, pH 8.3) was added. After continuously shaking for 1 h, 0.75 mL of dilute hydrochloric acid was added into the tube. Next, hippuric acid produced in the reaction solution was extracted by ethyl acetate (1.25 mL). The hippuric acid solution (the supernatant) was sucked out with a pipette (DG-1, Dragon TopPette, Beijing, China) and heated at 70 °C to evaporate the ethyl acetate. The residual hippuric acid was resolved in distilled water, and its absorbance at 228 nm was read. The inhibition capacity of BAAH peptides against ACE was the percentage of the absorbance reduction value at 228 nm to the absorbance of the control group (without BAAH peptide). The concentration of BAAH peptides was defined as IC50 when the activity of ACE was inhibited by half."}, "[5]": {"tested_on": "ACE", "experiment": "ACE inhibition after simulated gastrointestinal digestion (pepsin, then pancreatin)", "type": "in vitro ADME", "details": "pepsin pH 2.00, 90 min, then pancreatin pH 7.00, 150 min, 37 °C; p > 0.5 as printed", "experimental": "The N-hippuryl-L-histidyl-L-leucine method was utilized for the determination of the inhibiting capacity of BAAH peptides toward ACE [30]. In a glass test tube, 0.2 mL of ACE solution (dissolved in boric acid buffer, pH 8.3) and 0.2 mL of BAAH peptide aqueous solution (1 mg·mL^−1) were added. The mixture in the glass tube was shaken in a water bath at 143 r·min^−1 and 37 °C. Ten minutes later, 0.65 mL of N-hippuryl-L-histidyl-L-leucine (5 mmol·L^−1, dissolved in boric acid buffer, pH 8.3) was added. After continuously shaking for 1 h, 0.75 mL of dilute hydrochloric acid was added into the tube. Next, hippuric acid produced in the reaction solution was extracted by ethyl acetate (1.25 mL). The hippuric acid solution (the supernatant) was sucked out with a pipette (DG-1, Dragon TopPette, Beijing, China) and heated at 70 °C to evaporate the ethyl acetate. The residual hippuric acid was resolved in distilled water, and its absorbance at 228 nm was read. The inhibition capacity of BAAH peptides against ACE was the percentage of the absorbance reduction value at 228 nm to the absorbance of the control group (without BAAH peptide). The concentration of BAAH peptides was defined as IC50 when the activity of ACE was inhibited by half. Captopril was used as the positive control. […]"}, "[6]": {"experiment": "Zinc-chelating ability after simulated gastrointestinal digestion (pepsin, then pancreatin)", "type": "in vitro ADME", "details": "5 mg/mL peptide; pepsin pH 2.00, 90 min, then pancreatin pH 7.00, 150 min, 37 °C; then 4-(β-Pyridinazo)-resorcinol method", "experimental": "as §1\nIn a stirring (115 r·min^−1) water bath at 37 °C, the BAAH peptides’ aqueous solution (5 mg/mL, 10 mL) was added into a glass test tube, and the pH value was adjusted to 2.00 ± 0.05 with dilute hydrochloric acid solution (0.5 mol·L^−1). […] Afterward, both the chelating ability toward zinc ion, and the inhibition activity of BAAH peptides against ACE were determined using the 4-(β-Pyridinazo)-resorcinol method and N-hippuryl-L-histidyl-L-leucine method, respectively. […]"}}, "note": "Ends that are not written are not given here."}
{"substance": "ADMIET [peptide identified in Lepidium meyenii]", "values": [{"measurement": "ACE-inhibitory activity in words", "setting": "[1]", "value": "high ACE-inhibitory activities"}]}
{"substance": "EKTFLLYSCPHR [peptide identified from camel milk]", "values": [{"measurement": "IC50", "setting": "[1]", "value": 312, "unit": "µM"}]}
{"substance": "ELHPQ [peptide derived from canary seeds]", "values": [{"measurement": "ACE-inhibitory activity in words", "setting": "[1]", "value": "high ACE-inhibitory activities"}]}
{"substance": "FMRWRDRFL [peptide isolated from tombul hazelnut]", "values": [{"measurement": "IC50", "setting": "[1]", "value": 260, "unit": "µM"}]}
{"substance": "GYGYNY [camellia peptide]", "values": [{"measurement": "Antihypertensive effects on SHR", "setting": "[2]", "value": "dose-dependent antihypertensive effects"}, {"measurement": "Effect of the addition of zinc ions on antihypertension", "setting": "[2]", "value": "reduce"}]}
{"substance": "HLNVVHEN [peptide identified from walnut protein]", "values": [{"measurement": "ACE inhibitory pattern", "setting": "[1]", "value": "noncompetitive"}]}
{"substance": "KTETQP [KTETQP]", "values": [{"measurement": "Chelating ability toward zinc ions", "setting": "[3]", "value": "19.30 ± 1.46", "unit": "e mg·g^−1"}]}
{"substance": "KYPHVF [symbiotic peptide]", "values": [{"measurement": "ACE inhibition ability after zinc chelation", "setting": "[1]", "value": "not significantly reduced"}]}
{"substance": "LVRYYLLVR [peptide from hazelnut protein]", "values": [{"measurement": "ACE inhibitory pattern", "setting": "[1]", "value": "noncompetitive"}]}
{"substance": "LYSPLLKYFD [peptide from rice bran]", "values": [{"measurement": "Antihypertensive effects on SHR", "setting": "[2]", "value": "dose-dependent antihypertensive effects"}, {"measurement": "Effect of the addition of zinc ions on antihypertension", "setting": "[2]", "value": "reduce"}]}
{"substance": "PGSGCAGTDL [called Mung bean-derived in b48]", "values": [{"measurement": "ACE inhibitory pattern", "setting": "[1]", "value": "noncompetitive"}, {"measurement": "Antihypertensive effects on SHR", "setting": "[2]", "value": "dose-dependent antihypertensive effects"}, {"measurement": "Effect of the addition of zinc ions on antihypertension", "setting": "[2]", "value": "reduce"}]}
{"substance": "QPPAAAAAAGAG", "values": [{"measurement": "Chelating ability toward zinc ions", "setting": "[3]", "value": "1.14 ± 0.01", "unit": "g mg·g^−1"}]}
{"substance": "QTPHQ [peptide derived from canary seeds]", "values": [{"measurement": "ACE-inhibitory activity in words", "setting": "[1]", "value": "high ACE-inhibitory activities"}]}
{"substance": "RADVFNPR [peptide derived from palm kernel glutelin-1]", "values": [{"measurement": "ACE-inhibitory activity in words", "setting": "[1]", "value": "excellent ability to restrain ACE"}]}
{"substance": "RPPSEDEDQE", "values": [{"measurement": "IC50", "setting": "[4]", "value": 206, "unit": "µM"}, {"measurement": "Zinc-chelating ability and ACE-inhibitory capacity after hydrolysis of gastrointestinal proteases, versus untreated peptide", "setting": "[5]", "value": "not significantly reduced"}, {"measurement": "Chelating ability toward zinc ions after gastrointestinal digestion", "setting": "[6]", "value": "18.55 ± 0.95", "unit": "mg/g"}]}
{"substance": "RTVFDGEL [peptide derived from palm kernel glutelin-1]", "values": [{"measurement": "ACE-inhibitory activity in words", "setting": "[1]", "value": "excellent ability to restrain ACE"}]}
